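In this assay, cells in 96-well plates receive the compound at five concentrations for 48 hours. Endpoints are linearly interpolated between the surrounding concentrations. GI50: concentration for 50% inhibition of growth. TGI: total growth inhibition.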
Legend:
Experiment in all cases: DTP human tumour cell line panel, 48 h
786-0 renal = tested on: 786-0 renal
A498 renal = tested on: A498 renal
ACHN renal = tested on: ACHN renal
CAKI-1 renal = tested on: CAKI-1 renal
COLO 205 colon = tested on: COLO 205 colon
EKVX NSCLC = tested on: EKVX NSCLC
HS 578T breast = tested on: HS 578T breast
MDA-MB-231 breast = tested on: MDA-MB-231 breast
NCI-H226 lung = tested on: NCI-H226 lung
NCI-H23 lung = tested on: NCI-H23 lung
SF-539 CNS = tested on: SF-539 CNS
SK-MEL-2 melanoma = tested on: SK-MEL-2 melanoma
SK-MEL-5 melanoma = tested on: SK-MEL-5 melanoma
SK-OV-3 ovarian = tested on: SK-OV-3 ovarian
T-47D breast = tested on: T-47D breast
TK-10 renal = tested on: TK-10 renal
U251 CNS = tested on: U251 CNS
UO-31 renal = tested on: UO-31 renal

Row | Compound | TGI (786-0 renal) [µM] | TGI (A498 renal) [µM] | TGI (ACHN renal) [µM] | TGI (CAKI-1 renal) [µM] | TGI (COLO 205 colon) [µM] | TGI (EKVX NSCLC) [µM] | TGI (HS 578T breast) [µM] | TGI (MDA-MB-231 breast) [µM] | TGI (NCI-H226 lung) [µM] | TGI (NCI-H23 lung) [µM] | TGI (SF-539 CNS) [µM] | TGI (SK-MEL-2 melanoma) [µM] | TGI (SK-MEL-5 melanoma) [µM] | TGI (SK-OV-3 ovarian) [µM] | TGI (T-47D breast) [µM] | TGI (TK-10 renal) [µM] | TGI (U251 CNS) [µM] | TGI (UO-31 renal) [µM] | GI50 (TK-10 renal) [µM] | GI50 (UO-31 renal) [µM]
1 | COc1ccc(/C=N/n2c(=O)[nH]c3ccccc3c2=O)cc1 | > 100 | > 100 | > 100 | > 100 | > 100 | > 100 | > 100 | > 100 | > 100 | > 100 | > 100 | > 100 | > 100 | > 100 | > 100 | > 100 | > 100 | > 100 | – | –
2 | C=C1[C@H](OC(=O)C(C)C)[C@@H](OC(C)=O)[C@@H](OC(C)=O)C(C)(C)[C@@H]2O[C@H]2[C@@H](C)C(=O)[C@@]2(OC(C)=O)C[C@@](C)(OC(C)=O)[C@H](OC(C)=O)[C@@H]2[C@H]1OC(C)=O | > 100 | > 100 | > 100 | > 100 | > 100 | > 100 | > 100 | > 100 | > 100 | > 100 | > 100 | > 100 | > 100 | > 100 | > 100 | > 100 | > 100 | > 100 | – | –
3 | CC1=C(C)CC(C#N)(C#N)C(C#N)(C#N)C1 | > 8.08 | > 10 | > 10 | > 10 | > 6.8 | > 10 | > 10 | > 10 | > 10 | > 6.63 | > 10 | > 10 | > 10 | > 10 | 9.9 | > 8.75 | > 10 | > 10 | – | –
4 | Cc1cc(=O)oc2cc(SC(=O)N(C)C)ccc12 | > 100 | > 100 | > 100 | > 100 | > 100 | > 100 | > 100 | > 100 | > 100 | > 100 | > 100 | > 100 | > 100 | > 100 | > 100 | > 100 | > 100 | > 100 | – | –
5 | O=C(NCCc1ccccc1)[C@H]1CCCC[C@@H]1CCO | > 100 | > 100 | > 100 | > 100 | > 100 | > 100 | > 100 | > 100 | > 100 | > 100 | > 100 | > 100 | > 100 | > 100 | > 100 | > 100 | > 100 | > 100 | – | –
6 | O=C(/C=C/c1ccc(O)c(O)c1)OCc1ccccc1 | 84.3 | 50.5 | 40.7 | 67.3 | 70.9 | > 100 | > 100 | 67.1 | > 100 | 60.3 | 24.5 | 82 | 24.3 | 67.4 | 73.8 | 54.3 | 49.6 | 51.1 | – | –
7 | O=C1C=CC(=O)c2c1cc([N+](=O)[O-])c1ccoc21 | 3.35 | 30 | 3.4 | 3.54 | 8.63 | 41.1 | > 60.1 | 52.7 | > 62.7 | 46.2 | 69.9 | 35.9 | 31.3 | 43.6 | > 100 | 4.37 | 37.2 | 8.09 | – | –
8 | CC(=O)OCC1OC(n2c(C#N)cc(=O)[nH]c2=O)CC1OC(C)=O (centres undefined) | > 100 | > 100 | > 100 | > 100 | > 100 | > 100 | > 100 | > 100 | > 100 | > 100 | > 100 | > 100 | > 100 | > 100 | > 100 | > 100 | > 100 | > 100 | – | –
9 | Cc1cc(S(=O)(=O)NC(=C(C#N)C#N)[n+]2ccc(N(C)C)cc2)c([S-])cc1Cl | > 100 | > 100 | > 100 | > 100 | > 100 | > 100 | > 100 | > 100 | > 100 | > 100 | > 100 | > 100 | > 100 | > 100 | > 100 | > 100 | > 100 | > 100 | – | –
10 | COc1ccc2c(c1)CCN=C2Cc1ccccc1CCCl | > 100 | > 100 | 79.2 | 63.2 | 40 | > 100 | > 100 | 44.1 | 83.5 | 81.8 | 45.8 | 58.3 | 36.6 | > 100 | > 100 | > 100 | > 100 | 43.9 | – | –
11 | CN(C)C(=S)N1C(=S)N(c2ccccc2)C(=Nc2ccccc2)C1=Nc1ccccc1 | > 100 | > 100 | > 100 | > 100 | > 100 | > 100 | > 100 | > 100 | > 100 | > 100 | > 100 | > 100 | > 100 | > 100 | > 100 | > 100 | > 100 | > 100 | – | –
12 | CC1(C)C=Cc2c(cc3oc4ccc5c(c4c(=O)c3c2O)C=CC(C)(C)O5)O1 | > 100 | > 100 | > 100 | > 100 | > 100 | > 100 | > 100 | > 100 | > 100 | > 100 | > 100 | > 100 | > 100 | > 100 | > 100 | > 100 | > 100 | > 100 | – | –
13 | CC(C)(C)N1C(=O)c2ccccc2C1(O)C(F)(F)F (centres undefined) | > 100 | > 100 | > 100 | > 100 | > 100 | > 100 | 97.8 | > 100 | > 100 | > 100 | > 100 | > 100 | > 100 | > 100 | > 100 | > 100 | > 100 | > 100 | – | –
14 | O=C1Oc2ccccc2C(=O)/C1=C/N1C(=O)/C(=C/c2ccc3c(c2)OCO3)SC1=S | > 54.8 | 13.2 | 28.1 | 36.5 | 36.6 | > 100 | 14.9 | 44 | 34.5 | 30.5 | 26.7 | 34.2 | 29.8 | 38.5 | 31 | 22.7 | 15 | 22.9 | 10.1 | 7.14
15 | Cc1nnc2sc(Cl)nn12 | 86.8 | > 100 | 54.8 | 43.6 | 29.9 | 43.9 | > 100 | 54.4 | 86.2 | 34.8 | 47.1 | 90.3 | 25.2 | 31 | 73.4 | 68.5 | 31.4 | 74 | – | –
16 | COC(=O)C(Cc1ccccc1)NC(=O)C(CCC(=O)OCc1ccccc1)NC(=O)OC(C)(C)C (centres undefined) | > 100 | > 100 | > 100 | > 100 | > 100 | > 100 | > 100 | > 100 | > 100 | > 100 | > 100 | > 100 | > 100 | > 100 | > 100 | > 100 | > 100 | > 100 | – | –
17 | C=CCc1c(C)nc(C)nc1N/N=C/C=C/c1ccccc1 | > 100 | 65.2 | > 100 | > 100 | > 100 | 69.2 | > 100 | > 100 | > 100 | 94 | > 100 | > 100 | 84.2 | > 100 | 28 | 99.9 | 61.3 | > 100 | – | –
18 | O=C1OC2C(O)COC2(O)C1(O)C(C[N+](=O)[O-])c1ccc(Cl)cc1 (centres undefined) | 3.45 | 12.3 | 26.7 | 30.1 | 12.8 | 51.4 | > 52.9 | 48.7 | 26.6 | 18.6 | 14 | 35.8 | 21.6 | 31 | 43.2 | 25.9 | 25.5 | 22.7 | – | –
19 | O=c1[nH]c(=O)n(C2OC(CO)C(O)C2O)c2ncc(-c3ccc(-c4ccccc4)cc3)nc12 (centres undefined) | > 20 | > 20 | > 20 | > 20 | > 20 | > 20 | > 20 | > 20 | > 20 | > 20 | > 20 | > 20 | > 20 | > 20 | > 20 | > 20 | > 20 | > 20 | – | –
20 | Cc1ccccc1N=CN(C)C | > 100 | > 100 | > 100 | > 100 | > 100 | > 100 | > 100 | > 100 | > 100 | 61.8 | > 100 | > 100 | 43.6 | > 100 | > 100 | > 100 | > 100 | > 100 | – | –
21 | C=CC(CBr)CCC(Br)C(C)(C)Br (centres undefined) | > 10 | > 10 | > 10 | > 10 | > 10 | > 10 | > 10 | > 10 | > 10 | > 10 | > 10 | > 10 | > 10 | > 10 | > 10 | > 10 | > 10 | > 10 | – | –
22 | CCSC1=N/C(=C\c2ccco2)C(NN)=N1 | > 50 | > 50 | > 50 | > 50 | > 50 | > 50 | > 50 | > 50 | > 50 | > 50 | > 50 | > 50 | > 50 | > 50 | > 50 | > 50 | > 50 | > 50 | – | –
23 | NC(=O)NC(=O)CCC(NS(=O)(=O)c1ccccc1)C(=O)NC(N)=O (centres undefined) | > 100 | > 100 | > 100 | > 100 | > 100 | > 100 | > 100 | > 100 | > 100 | > 100 | > 100 | > 100 | > 100 | > 100 | > 100 | > 100 | > 100 | > 100 | – | –
24 | CC(C)(Br)C(Br)CCC(=CCBr)CBr (mixture of isomers) | 3.84 | 44.6 | 21.6 | 33.1 | 10.7 | 49.7 | 49.7 | 26.3 | 28.3 | 12.1 | 10.3 | 9.32 | 12.4 | 36.4 | 8.53 | 22.5 | 8.26 | 27.5 | – | –

From PubChem BioAssay (NCI)
